Experimental data reported in patent publication US10336732B2, “1-heterocyclyl isochromanyl compounds and analogs for treating CNS disorders” (Sunovion Pharmaceuticals Inc., priority 2015, dated 2019).

System: mice
Assay: Neuropharmacological assay (SmartCube), behavioral signature of compound-treated mice
Format: in vivo
Settings: i.p. 15 min before behavioral test, most efficacious dose(s) of 3 doses
How it was run: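 Mice received compound i.p. in NMP/PEG/propylene glycol vehicle at 3 doses, 15 min before testing. Video-captured behavior was algorithmically compared with a reference-drug signature database.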

| Compound | AD: ADHD (probability that behavioral signature matches class) | AG: analgesic (probability that behavioral signature matches class) | AX: anxiolytic (probability that behavioral signature matches class) | CE: cognitive enhancer (probability that behavioral signature matches class) | DP: anti-depressant (probability that behavioral signature matches class) | HA: hallucinogen (probability that behavioral signature matches class) | MS: mood stabilizer (probability that behavioral signature matches class) | PS: anti-psychotic (probability that behavioral signature matches class) | SD: sedative hypnotic (probability that behavioral signature matches class) | UN: uncharacterized CNS activity (probability that behavioral signature matches class) | XG: anxiogenic (probability that behavioral signature matches class) |
| --- | --- | --- | --- | --- | --- | --- | --- | --- | --- | --- | --- |
| Cc1cccc2c1[C@H]([C@H]1CCCN1)OCCC2 [Compound I-103, (R)-2-((R)-9-methyl-1,3,4,5-tetrahydrobenzo[c]oxepin-1-yl)pyrrolidine] | + (LOQ ≤ + <5%) | ++ (5% ≤ ++ <25%) | ++ (5% ≤ ++ <25%) | + (LOQ ≤ + <5%) | ++ (5% ≤ ++ <25%) | + (LOQ ≤ + <5%) | + (LOQ ≤ + <5%) | + (LOQ ≤ + <5%) | ++ (5% ≤ ++ <25%) | +++ (25% ≤ +++ <50%) | + (LOQ ≤ + <5%) |
| Cc1cccc2c1[C@@H]([C@H]1CCCN1)OCCC2 [Compound I-104, (R)-2-((S)-9-methyl-1,3,4,5-tetrahydrobenzo[c]oxepin-1-yl)pyrrolidine] | + (LOQ ≤ + <5%) | +++ (25% ≤ +++ <50%) | ++ (5% ≤ ++ <25%) | + (LOQ ≤ + <5%) | ++ (5% ≤ ++ <25%) | + (LOQ ≤ + <5%) | + (LOQ ≤ + <5%) | + (LOQ ≤ + <5%) | ++ (5% ≤ ++ <25%) | ++ (5% ≤ ++ <25%) | + (LOQ ≤ + <5%) |
| Fc1cccc2c1[C@H]([C@@H]1CCCN1)OCCC2 [Compound I-105, (S)-2-((R)-9-fluoro-1,3,4,5-tetrahydrobenzo[c]oxepin-1-yl)pyrrolidine] | + (LOQ ≤ + <5%) | ++ (5% ≤ ++ <25%) | +++ (25% ≤ +++ <50%) | ++ (5% ≤ ++ <25%) | ++ (5% ≤ ++ <25%) | + (LOQ ≤ + <5%) | + (LOQ ≤ + <5%) | ++ (5% ≤ ++ <25%) | ++ (5% ≤ ++ <25%) | ++++ (50% ≤ ++++) | + (LOQ ≤ + <5%) |
| Fc1ccc2c(c1)[C@@H]([C@@H]1CCCN1)OCCC2 [Compound I-106, (S)-2-((S)-8-fluoro-1,3,4,5-tetrahydrobenzo[c]oxepin-1-yl)pyrrolidine] | + (LOQ ≤ + <5%) | ++ (5% ≤ ++ <25%) | ++ (5% ≤ ++ <25%) | +++ (25% ≤ +++ <50%) | + (LOQ ≤ + <5%) | + (LOQ ≤ + <5%) | + (LOQ ≤ + <5%) | ++ (5% ≤ ++ <25%) | + (LOQ ≤ + <5%) | + (LOQ ≤ + <5%) | + (LOQ ≤ + <5%) |
| Fc1ccc2c(c1)[C@H]([C@@H]1CCCN1)OCCC2 [Compound I-107, (S)-2-((R)-8-fluoro-1,3,4,5-tetrahydrobenzo[c]oxepin-1-yl)pyrrolidine] | + (LOQ ≤ + <5%) | ++ (5% ≤ ++ <25%) | +++ (25% ≤ +++ <50%) | ++ (5% ≤ ++ <25%) | ++ (5% ≤ ++ <25%) | + (LOQ ≤ + <5%) | ++ (5% ≤ ++ <25%) | +++ (25% ≤ +++ <50%) | ++ (5% ≤ ++ <25%) | ++ (5% ≤ ++ <25%) | + (LOQ ≤ + <5%) |
| Fc1ccc2c(c1)[C@@H]([C@H]1CCCN1)OCCC2 [Compound I-108, (R)-2-((S)-8-fluoro-1,3,4,5-tetrahydrobenzo[c]oxepin-1-yl)pyrrolidine] | + (LOQ ≤ + <5%) | ++ (5% ≤ ++ <25%) | ++ (5% ≤ ++ <25%) | ++ (5% ≤ ++ <25%) | ++ (5% ≤ ++ <25%) | + (LOQ ≤ + <5%) | + (LOQ ≤ + <5%) | +++ (25% ≤ +++ <50%) | ++ (5% ≤ ++ <25%) | ++ (5% ≤ ++ <25%) | + (LOQ ≤ + <5%) |
| Fc1ccc2c(c1)[C@H]([C@H]1CCCN1)OCCC2 [Compound I-109, (R)-2-((R)-8-fluoro-1,3,4,5-tetrahydrobenzo[c]oxepin-1-yl)pyrrolidine] | + (LOQ ≤ + <5%) | ++ (5% ≤ ++ <25%) | ++ (5% ≤ ++ <25%) | + (LOQ ≤ + <5%) | +++ (25% ≤ +++ <50%) | + (LOQ ≤ + <5%) | ++ (5% ≤ ++ <25%) | ++ (5% ≤ ++ <25%) | ++ (5% ≤ ++ <25%) | ++ (5% ≤ ++ <25%) | + (LOQ ≤ + <5%) |
| Fc1ccc2c(c1)CCCO[C@@H]2[C@@H]1CCCN1 [Compound I-110, (S)-2-((S)-7-fluoro-1,3,4,5-tetrahydrobenzo[c]oxepin-1-yl)pyrrolidine] | + (LOQ ≤ + <5%) | ++ (5% ≤ ++ <25%) | ++ (5% ≤ ++ <25%) | ++ (5% ≤ ++ <25%) | ++ (5% ≤ ++ <25%) | + (LOQ ≤ + <5%) | + (LOQ ≤ + <5%) | ++++ (50% ≤ ++++) | ++ (5% ≤ ++ <25%) | +++ (25% ≤ +++ <50%) | + (LOQ ≤ + <5%) |
| Fc1ccc2c(c1)CCCO[C@H]2[C@@H]1CCCN1 [Compound I-111, (S)-2-((R)-7-fluoro-1,3,4,5-tetrahydrobenzo[c]oxepin-1-yl)pyrrolidine] | + (LOQ ≤ + <5%) | ++ (5% ≤ ++ <25%) | ++ (5% ≤ ++ <25%) | ++ (5% ≤ ++ <25%) | ++ (5% ≤ ++ <25%) | + (LOQ ≤ + <5%) | + (LOQ ≤ + <5%) | ++++ (50% ≤ ++++) | ++ (5% ≤ ++ <25%) | +++ (25% ≤ +++ <50%) | + (LOQ ≤ + <5%) |
